Test results from patent publication US10316056B2, “Chemical compounds and use thereof for improving muscular quality” (BIOPHYTIS, priority 2014, dated 2019).

Each compound was assayed on myostatin gene expression in C2C12 cells (assay: Inhibition of myostatin expression in C2C12 cells (qPCR)). Conditions: Mus musculus, percentage myostatin gene expression in cells in contact with the compounds related to control cells, C2C12, 6 h.
Type: cell-based
Experimental: After several experiments in which the C2C12 cells differentiated into myotubes were incubated in the presence of IGF-1 or 20E for 2 h 30 or 6 h, two screening tests were developed. Thus, the phosphorylation of the S6 protein kinase and the expression of the myostatin gene were studied in order to determine their modulation by a growth hormone or an ecdysone and to characterize these modulations from a statistical point of view. The C2C12 myoblast cells (ATCC CRL-1772) are seeded into 24-well plates at a density of 30 000 cells per well and cultured in a DMEM medium containing glucose in a proportion of 4.5 g/l and supplemented with fetal calf serum (10%) and with antibiotics (penicillin and streptomycin). Forty-eight hours later, the myoblasts are induced to differentiate by partial serum depletion (2% instead of 10%) for 5 days. The cells are then placed in a medium which is glucose-depleted (DMEM containing 1 g/l of glucose) and serum-free in the presence of the test molecules or of the references (100 ng/ml IGF-1 or 10 μ[…]) for 6 h. At the end of the experiment, the messenger RNAs (mRNAs) are extracted using the conventional methodology based on phenol and chloroform. Briefly, the cells are lysed in a Trizol solution (Sigma T9424) containing a strong acid and phenol. The mRNAs are separated from the proteins by addition of chloroform and then centrifugation. They are then precipitated from isopropanol and then suspended at a concentration of 1 μg/μl in an […] ultrapure water. 1 μg of mRNA is then converted by reverse transcription into complementary DNA by the AMV enzyme in the presence of a primer and of a mixture of nucleotides according to the protocol given by the supplier (Applied Biosystems 4368814). […] The qPCRs are carried out on a 7900HT Fast real-Time PCR detection system (Applied Biosystems). The programming conditions are standard and consist of 1 cycle at 95° C. for 15 min, followed by 40 cycles at 95° C. for 15 s and at 60° C. for 1 min and the program ends with a melt curve step between 60° C. and 95° C. […] Fluorescent probes bind to the double-stranded DNA and are fluorescent only once bound to the DNA. A fluorescence threshold is established by the machine's program. When the amount of DNA allows the fluorescent probe to exceed this threshold, a PCR cycle number, called “Ct” for “Cycle Threshold”, is obtained. It is this value which forms the basis of the calculations to quantify the DNA relatively. A ratio R is established between the amount of starting DNA of a sample and that of a control, which has not undergone treatment (i.e. […] R=2^-ΔΔCt).
Compound `CC(=NOCC(=O)O)[C@H]1CCC2C3=CC(=O)[C@@H]4C[C@@H](O)[C@@H](O)C[C@]4(C)C3CC[C@@]21C` (stereo partly drawn) [Compound 4, 2-[1-[(2S,3R,5R,10R,13S,17S)-2,3-dihydroxy-10,13-dimethyl-6-oxo-1,2,3,4,5,9,11,12,14,15,16,17-dodecahydrocyclopenta[a]phenanthren-17-yl]ethylideneamino]oxyacetic acid] has a mrna remaining at 10 µM of less than 70%.
In the case of `CCON=C(C)[C@H]1CCC2C3=CC(=O)[C@@H]4C[C@@H](O)[C@@H](O)C[C@]4(C)C3CC[C@@]21C` (stereo partly drawn) [Compound 5, (2S,3R,5R,10R,13S,17S)-17-(N-ethoxy-C-methylcarbonimidoyl)-2,3-dihydroxy-10,13-dimethyl-1,2,3,4,5,9,11,12,14,15,16,17-dodecahydrocyclopenta[a]phenanthren-6-one], the mrna remaining at 10 µM is reported as less than 70%.
Work on `CO/N=C1/C=C2C3=CC[C@H](C(C)=NO)[C@@]3(C)CCC2[C@@]2(C)C[C@H](O)[C@H](O)C[C@@H]12` (stereo partly drawn) [Compound 7, 1-[(2S,3R,5R,6Z,10R,13R,17S)-2,3-dihydroxy-6-methoxyimino-10,13-dimethyl-1,2,3,4,5,9,11,12,16,17-decahydrocyclopenta[a]phenanthren-17-yl]ethanone oxime] yielded a mrna remaining at 10 µM of less than 70%.
For `COCCON=C(C)[C@H]1CC[C@@]2(O)C3=C/C(=N\OC)[C@@H]4C[C@@H](O)[C@@H](O)C[C@]4(C)C3CC[C@]12C` (stereo partly drawn) [Compound 19, (2S,3R,5R,6E,10R,13R,14S,17S)-17-(N-(2-methoxyethoxy)-C-methylcarbonimidoyl)-6-methoxyimino-10,13-dimethyl-2,3,4,5,9,11,12,15,16,17-decahydro-1H-cyclopenta[a]phenanthrene-2,3,14-triol], the mrna remaining at 10 µM was 71 to 85%.
For `CC(C)=CCON=C(C)[C@H]1CC[C@@]2(O)C3=C/C(=N\O)[C@@H]4C[C@@H](O)[C@@H](O)C[C@]4(C)C3CC[C@]12C` (stereo partly drawn) [Compound 21, (2S,3R,5R,10R,13R,14S,17S)-2,3,14-trihydroxy-10,13-dimethyl-17-(C-methyl-N-(3-methylbut-2-enoxy)carbonimidoyl)-2,3,4,5,9,11,12,15,16,17-decahydro-1H-cyclopenta[a]phenanthren-6-one oxime], the mrna remaining at 10 µM was less than 70%.
With `CCO/N=C(/C)[C@H]1CC[C@@]2(O)C3=CC(=O)[C@@H]4C[C@@H](O)[C@@H](O)C[C@]4(C)C3CC[C@]12C` (stereo partly drawn) [Compound 23, (2S,3R,5R,10R,13R,14S,17S)-17-(N-ethoxy-C-methylcarbonimidoyl)-2,3,14-trihydroxy-10,13-dimethyl-2,3,4,5,9,11,12,15,16,17-decahydro-1H-cyclopenta[a]phenanthren-6-one] the mrna remaining at 10 µM was 71 to 85%.
`CO/N=C(/C)[C@H]1CC[C@@]2(O)C3=CC(=O)[C@@H]4C[C@@H](O)[C@@H](O)C[C@]4(C)C3CC[C@]12C` (stereo partly drawn) [Compound 25, (2S,3R,5R,10R,13R,14S,17S)-17-(N-methoxy-C-methylcarbonimidoyl)-2,3,14-trihydroxy-10,13-dimethyl-2,3,4,5,9,11,12,15,16,17-decahydro-1H-cyclopenta[a]phenanthren-6-one] gave a mrna remaining at 10 µM of less than 70%.
For `C/C(=N/OCCOc1ccccc1)[C@H]1CC[C@@]2(O)C3=CC(=O)[C@@H]4C[C@@H](O)[C@@H](O)C[C@]4(C)C3CC[C@]12C` (stereo partly drawn) [Compound 27, (2S,3R,5R,10R,13R,14S,17S)-2,3,14-trihydroxy-10,13-dimethyl-17-(C-methyl-N-(2-phenoxyethoxy)carbonimidoyl)-2,3,4,5,9,11,12,15,16,17-decahydro-1H-cyclopenta[a]phenanthren-6-one], the mrna remaining at 10 µM was less than 70%.
`COCCO/N=C(/C)[C@H]1CC[C@@]2(O)C3=CC(=O)[C@@H]4C[C@@H](O)[C@@H](O)C[C@]4(C)C3CC[C@]12C` (stereo partly drawn) [Compound 29, (2S,3R,5R,10R,13R,14S,17S)-2,3,14-trihydroxy-17-(N-(2-methoxyethoxy)-C-methylcarbonimidoyl)-10,13-dimethyl-2,3,4,5,9,11,12,15,16,17-decahydro-1H-cyclopenta[a]phenanthren-6-one] showed a mrna remaining at 10 µM of less than 70%.
With `CC(C)=CCO/N=C(/C)[C@H]1CC[C@@]2(O)C3=CC(=O)[C@@H]4C[C@@H](O)[C@@H](O)C[C@]4(C)C3CC[C@]12C` (stereo partly drawn) [Compound 30, (2S,3R,5R,10R,13R,14S,17S)-2,3,14-trihydroxy-10,13-dimethyl-17-(C-methyl-N-(3-methylbut-2-enoxy)carbonimidoyl)-2,3,4,5,9,11,12,15,16,17-decahydro-1H-cyclopenta[a]phenanthren-6-one] the mrna remaining at 10 µM was 71 to 85%.
In the case of `C/C(=N/OCCOc1ccccc1)[C@H]1CC=C2C3=CC(=O)[C@@H]4C[C@@H](O)[C@@H](O)C[C@]4(C)C3CC[C@@]21C` (stereo partly drawn) [Compound 33, (2S,3R,5R,10R,13R,17S)-2,3-dihydroxy-10,13-dimethyl-17-(C-methyl-N-(2-phenoxyethoxy)carbonimidoyl)-1,2,3,4,5,9,11,12,16,17-decahydrocyclopenta[a]phenanthren-6-one], the mrna remaining at 10 µM is reported as less than 70%.
For `C/C(=N/OCCN(C)C)[C@H]1CC[C@@]2(O)C3=CC(=O)[C@@H]4C[C@@H](O)[C@@H](O)C[C@]4(C)C3CC[C@]12C` (stereo partly drawn) [Compound 35, (2S,3R,5R,10R,13R,14S,17S)-17-(N-(2-dimethylaminoethoxy)-C-methylcarbonimidoyl)-2,3,14-trihydroxy-10,13-dimethyl-2,3,4,5,9,11,12,15,16,17-decahydro-1H-cyclopenta[a]phenanthren-6-one], the mrna remaining at 10 µM was 71 to 85%.
In the case of `C/C(=N/OCCN1CCCC1)[C@H]1CC[C@@]2(O)C3=CC(=O)[C@@H]4C[C@@H](O)[C@@H](O)C[C@]4(C)C3CC[C@]12C` (stereo partly drawn) [Compound 36, (2S,3R,5R,10R,13R,14S,17S)-2,3,14-trihydroxy-10,13-dimethyl-17-(C-methyl-N-(2-pyrrolidin-1-ylethoxy)carbonimidoyl)-2,3,4,5,9,11,12,15,16,17-decahydro-1H-cyclopenta[a]phenanthren-6-one], the mrna remaining at 10 µM is reported as 71 to 85%.
For `CO/N=C1\C=C2C(CC[C@]3(C)[C@@H](C(C)N(CC(F)F)C(=O)c4ccco4)CC[C@@]23O)[C@@]2(C)C[C@H](O)[C@H](O)C[C@@H]12` (stereo partly drawn) [Compound 37, N-(2,2-difluoroethyl)-N-[1-[(2S,3R,5R,6E,10R,13R,14S,17S)-2,3,14-trihydroxy-6-methoxyimino-10,13-dimethyl-2,3,4,5,9,11,12,15,16,17-decahydro-1H-cyclopenta[a]phenanthren-17-yl]ethyl]furan-2-carboxamide], the mrna remaining at 10 µM was 71 to 85%.
For `CO/N=C1\C=C2C(CC[C@]3(C)[C@@H](C(C)N(CC(OC)OC)C(=O)C(C)C)CC[C@@]23O)[C@@]2(C)C[C@H](O)[C@H](O)C[C@@H]12` (stereo partly drawn) [Compound 38, N-(2,2-dimethoxyethyl)-2-methyl-N-[1-[(2S,3R,5R,6E,10R,13R,14S,17S)-2,3,14-trihydroxy-6-methoxyimino-10,13-dimethyl-2,3,4,5,9,11,12,15,16,17-decahydro-1H-cyclopenta[a]phenanthren-17-yl]ethyl]propanamide], the mrna remaining at 10 µM was less than 70%.
For `CC([C@H]1CC[C@@]2(O)C3=CC(=O)[C@@H]4C[C@@H](O)[C@@H](O)C[C@]4(C)C3CC[C@]12C)N(CC1CCCO1)C(=O)C1CC1` (stereo partly drawn) [Compound 47, N-(tetrahydrofuran-2-ylmethyl)-N-[1-[(2S,3R,5R,10R,13R,14S,17S)-2,3,14-trihydroxy-10,13-dimethyl-6-oxo-2,3,4,5,9,11,12,15,16,17-decahydro-1H-cyclopenta[a]phenanthren-17-yl]ethyl]cyclopropanecarboxamide], the mrna remaining at 10 µM was less than 70%.
